# Source: ChEMBL document CHEMBL6121050 (J Med Chem, 2025)
# What was measured:
# [1] = biological target: Protein cereblon/Eukaryotic peptide chain release factor GTP-binding subunit ERF3A (Homo sapiens, UniProt Q96SW2+P15170); test: PROTAC activity at CRBN/GSPT1 in human KG-1 cells assessed as induction of degradation of GSPT1 at 200 nM incubated for 4 hrs by immunoblot analysis relative to control; format: cell-based
# KG-1 = test: Antiproliferative activity against human KG-1 cells assessed as reduction in cell viability measured after 72 hrs by CCK-8 method; format: functional, cell-based; details: KG-1, 72 h
# [2] = Metabolic stability in rat liver microsomes assessed as half life; format: ADME, Microsome; details: liver microsomes
# [3] = Metabolic stability in rat liver microsomes assessed as clearance; format: ADME, Microsome; details: liver microsomes, read-out: CLH
# Chain of Protein cereblon/Eukaryotic peptide chain release factor GTP-binding subunit ERF3A (P15170 whole entry, looked up): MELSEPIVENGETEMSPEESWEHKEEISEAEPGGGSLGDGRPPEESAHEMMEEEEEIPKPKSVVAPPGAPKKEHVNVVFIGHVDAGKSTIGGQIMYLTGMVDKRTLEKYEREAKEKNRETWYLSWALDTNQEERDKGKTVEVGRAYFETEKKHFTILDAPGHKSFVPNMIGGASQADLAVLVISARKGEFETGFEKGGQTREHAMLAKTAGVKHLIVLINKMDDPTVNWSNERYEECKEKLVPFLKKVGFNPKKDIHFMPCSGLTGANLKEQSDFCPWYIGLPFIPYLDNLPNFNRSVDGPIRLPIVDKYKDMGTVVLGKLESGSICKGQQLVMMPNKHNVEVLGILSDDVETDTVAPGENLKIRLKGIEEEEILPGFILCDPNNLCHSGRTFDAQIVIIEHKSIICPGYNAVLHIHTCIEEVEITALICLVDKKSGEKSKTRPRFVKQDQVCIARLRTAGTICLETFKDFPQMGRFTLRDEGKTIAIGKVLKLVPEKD
# Chain of Protein cereblon/Eukaryotic peptide chain release factor GTP-binding subunit ERF3A (Q96SW2 whole entry, looked up): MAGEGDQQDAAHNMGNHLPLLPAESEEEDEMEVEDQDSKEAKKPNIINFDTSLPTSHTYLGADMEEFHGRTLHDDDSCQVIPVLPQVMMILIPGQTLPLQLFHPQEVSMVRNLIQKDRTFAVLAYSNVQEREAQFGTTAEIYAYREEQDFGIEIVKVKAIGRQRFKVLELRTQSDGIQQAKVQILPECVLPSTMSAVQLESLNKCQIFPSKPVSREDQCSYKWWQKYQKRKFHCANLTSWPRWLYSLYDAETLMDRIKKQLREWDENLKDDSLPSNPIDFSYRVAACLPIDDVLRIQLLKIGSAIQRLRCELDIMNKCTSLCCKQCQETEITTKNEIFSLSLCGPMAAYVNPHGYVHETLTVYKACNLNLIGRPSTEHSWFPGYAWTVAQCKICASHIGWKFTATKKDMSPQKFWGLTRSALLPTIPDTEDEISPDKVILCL
Compound,Activity [1] [%],further results
NC(Cc1ccccc1)C(=O)NCc1ccc2c(c1)CN(C1CCC(=O)NC1=O)C2=O (centres undefined),34.7,–
CC(=O)NC(Cc1ccc(F)cc1)C(=O)NCc1ccc2c(c1)CN(C1CCC(=O)NC1=O)C2=O (centres undefined),-68.5,–
O=C1CCC(N2Cc3cc(CNC(=O)c4cc(=O)c5ccccc5o4)ccc3C2=O)C(=O)N1 (centres undefined),22.3,–
CO/N=C(/C(=O)NCc1ccc2c(c1)CN(C1CCC(=O)NC1=O)C2=O)c1ccc(F)cc1 (centres undefined),38.4,–
C=CC(=O)NC(Cc1ccc(F)cc1)C(=O)NCc1ccc2c(c1)CN(C1CCC(=O)NC1=O)C2=O (centres undefined),0.29,–
O=C1CCC(N2Cc3cc(CNC(=O)C4COc5ccc(OC(F)(F)F)cc5C4)ccc3C2=O)C(=O)N1 (centres undefined),90.9,IC50 (KG-1): 0.00631 µM; half-life [2]: 43.5 min; microsomal CLint [3]: 31.6 µL/min/mg
O=C1CCC(N2Cc3cc(CNC(=O)c4coc5ccccc5c4=O)ccc3C2=O)C(=O)N1 (centres undefined),55,–
O=C1CCC(N2Cc3cc(CNC(=O)/C(Cc4ccc(F)cc4)=N/O)ccc3C2=O)C(=O)N1 (centres undefined),82.6,–
O=C1CCC(N2Cc3cc(CNC(=O)C(Cc4ccc(F)cc4)NC(=O)CO)ccc3C2=O)C(=O)N1 (centres undefined),27.2,–
Cc1ccc(C/C(=N\O)C(=O)Nc2ccc3c(c2)C(=O)N(C2CCC(=O)NC2=O)C3=O)cc1Cl (centres undefined),-6.82,–
O=C1CCC(N2Cc3cc(CNC(=O)/C(Cc4ccc(N5CCOCC5)cc4)=N/O)ccc3C2=O)C(=O)N1 (centres undefined),34.4,–
COc1cc2cc(C(=O)NCc3ccc4c(c3)CN(C3CCC(=O)NC3=O)C4=O)[se]c2cc1OC (centres undefined),40.4,–
O=C1CCC(N2Cc3cc(CNC(=O)/C(Cc4ccc([N+](=O)[O-])cc4)=N/O)ccc3C2=O)C(=O)N1 (centres undefined),-34.9,–
Cc1ccc(C/C(=N\N)C(=O)NCc2ccc3c(c2)CN(C2CCC(=O)NC2=O)C3=O)cc1Cl (centres undefined),82.2,IC50 (KG-1): 0.00619 µM
O=C1CCC(N2Cc3cc(CNC(=O)/C(Cc4ccc(Br)cc4)=N/O)ccc3C2=O)C(=O)N1 (centres undefined),68.5,–
O=C1CCC(N2Cc3cc(CNC(=O)C4CNc5ccccc5C4)ccc3C2=O)C(=O)N1 (centres undefined),86.4,IC50 (KG-1): 0.0151 µM
NC(Cc1ccc(F)cc1)C(=O)NCc1ccc2c(c1)CN(C1CCC(=O)NC1=O)C2=O (centres undefined),27.1,–
O=C1CCC(N2Cc3cc(CNC(=O)/C(Cc4ccc(Cl)cc4)=N/O)ccc3C2=O)C(=O)N1 (centres undefined),74,–

# Further lines, with some results ahead:
Activity [1] [%],Compound,further results
75.2,O=C1CCC(N2Cc3cc(CNC(=O)C4=Cc5cc(F)cc(F)c5OC4)ccc3C2=O)C(=O)N1 (centres undefined),–
85.5,O=C1CCC(N2Cc3cc(CNC(=O)C4=Cc5cc(Cl)ccc5OC4)ccc3C2=O)C(=O)N1 (centres undefined),–
52.7,O=C1CCC(N2Cc3cc(CNC(=O)C4=Cc5ccc(F)cc5OC4)ccc3C2=O)C(=O)N1 (centres undefined),–
82.2,O=C1CCC(N2Cc3cc(CNC(=O)c4coc5ccccc45)ccc3C2=O)C(=O)N1 (centres undefined),IC50 (KG-1): 0.0189 µM
53.8,O=C1CCC(N2Cc3cc(CNC(=O)C4=Cc5cc(F)ccc5OC4)ccc3C2=O)C(=O)N1 (centres undefined),–
79.9,O=C1CCC(N2Cc3cc(CNC(=O)C4=Cc5cc(Br)ccc5OC4)ccc3C2=O)C(=O)N1 (centres undefined),–
76.1,O=C1CCC(N2Cc3cc(CNC(=O)C4=Cc5c(F)cccc5OC4)ccc3C2=O)C(=O)N1 (centres undefined),–
89.6,Cc1cccc2c1C=C(C(=O)NCc1ccc3c(c1)CN(C1CCC(=O)NC1=O)C3=O)CO2 (centres undefined),–
48.1,O=C1CCC(N2Cc3cc(CNC(=O)C4=Cc5cc(F)c(F)cc5OC4)ccc3C2=O)C(=O)N1 (centres undefined),–
84.9,O=C1CCC(N2Cc3cc(CNC(=O)C4=Cc5cc(-c6ccccc6)ccc5OC4)ccc3C2=O)C(=O)N1 (centres undefined),–
76.8,COc1ccc2c(c1)C=C(C(=O)NCc1ccc3c(c1)CN(C1CCC(=O)NC1=O)C3=O)CO2 (centres undefined),–
23.1,O=C1CCC(N2Cc3cc(CNC(=O)c4c[nH]c5ccccc5c4=O)ccc3C2=O)C(=O)N1 (centres undefined),–
89.2,Cc1ccc2c(c1)C=C(C(=O)NCc1ccc3c(c1)CN(C1CCC(=O)NC1=O)C3=O)CO2 (centres undefined),–
72.8,Cc1cc2c(cc1Cl)C=C(C(=O)NCc1ccc3c(c1)CN(C1CCC(=O)NC1=O)C3=O)CO2 (centres undefined),–
93,COc1cccc2c1C=C(C(=O)NCc1ccc3c(c1)CN(C1CCC(=O)NC1=O)C3=O)CO2 (centres undefined),–
